SMILES strings stand for the structures. Where two headings read alike, the source gives them in different places.

The test system of experiment [1] is RNA Polymerase II Serine 5 phosphorylation in A549 cells overexpressing CDK7-mutant (C312S). The experiment is described as follows: Imaging-based cellular RNA PolII Ser5 phosphorylation assay in A549 cells overexpressing CDK7-mutant (C312S). The class given is cell-based, human. The conditions noted are these: RNA PolII Ser5 phosphorylation, averaged over all measurements; for IC50: Homo sapiens, A549, A549 cells overexpressing CDK7-mutant (C312S), read-out: CDK7_A549 mutant hCDK7(pIC50) (converted). A digest of the protocol: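 A549 cells overexpressing CDK7 C312S (with endogenous wild-type CDK7) were treated with compound for 3 h at 37 °C in 1% FBS medium. Phospho-Rpb1 CTD Ser5 was immunostained after fixation and imaged. IC50 came from curve fit of % control, normalised to DMSO and 10 μM reference-compound controls.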

For experiment [2], the target named is CDK7/cyclinH/MAT1 trimeric complex (Homo sapiens, UniProt P50613). The experiment is described as follows: In vitro CDK7 assay, potency of irreversible covalent inhibitors (kinact/KI), coupled PK/LDH ADP readout at 340 nm. The conditions noted are these: for Ki: CDK7 (20 nM enz.) (KI, μM); for kinact: read-out: CDK7 (20 nM enz.) (kinact, s^−1), 20 nM enzyme.
For experiment [3], the system named is RNA Polymerase II Serine 5 phosphorylation (Rpb1 CTD, downstream substrate of CDK7) in A549 cells. The experiment can be described thus: Imaging-based cellular RNA PolII Ser5 phosphorylation assay in A549 cells. The format is cell-based, human. The following applies: wild-type CDK7, RNA PolII Ser5 phosphorylation, averaged over all measurements; for IC50: Homo sapiens, A549, A549 cells, read-out: CDK7_A549 Wild-type CDK7 (pIC50) (converted). A digest of the protocol:
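A549 cells, seeded 1000/well in DMEM with 1% FBS and cultured 20 h, were treated with compound for 3 h at 37 °C. Ser5-phospho-Rpb1 CTD detected by immunofluorescence imaging after fixation and methanol permeabilization; IC50 from curve fit normalized to DMSO and 10 μM reference-compound controls.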

The mark [4] stands for this setting: read-out: CDK7 (20 nM enz.) (kinact/KI, M^−1*s^−1), 20 nM enzyme.
Where [5] appears, read: read-out: CDK7 (20 nM enz.) (kobs/[I], M^−1*s^−1), 20 nM enzyme.

CDK7/cyclinH/MAT1 trimeric complex, sequence (P50613 whole entry): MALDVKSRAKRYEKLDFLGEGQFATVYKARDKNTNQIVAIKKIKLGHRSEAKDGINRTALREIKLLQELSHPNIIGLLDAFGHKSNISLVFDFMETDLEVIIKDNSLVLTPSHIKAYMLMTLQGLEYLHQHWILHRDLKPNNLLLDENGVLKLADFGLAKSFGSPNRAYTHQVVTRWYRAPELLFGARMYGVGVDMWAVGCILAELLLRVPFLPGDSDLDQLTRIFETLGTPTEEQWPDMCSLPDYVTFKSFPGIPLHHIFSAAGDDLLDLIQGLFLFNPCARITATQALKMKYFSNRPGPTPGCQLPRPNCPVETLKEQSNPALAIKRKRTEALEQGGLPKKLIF
CDK7/cyclinH/MAT1 trimeric complex, sequence (P51946 whole entry partner): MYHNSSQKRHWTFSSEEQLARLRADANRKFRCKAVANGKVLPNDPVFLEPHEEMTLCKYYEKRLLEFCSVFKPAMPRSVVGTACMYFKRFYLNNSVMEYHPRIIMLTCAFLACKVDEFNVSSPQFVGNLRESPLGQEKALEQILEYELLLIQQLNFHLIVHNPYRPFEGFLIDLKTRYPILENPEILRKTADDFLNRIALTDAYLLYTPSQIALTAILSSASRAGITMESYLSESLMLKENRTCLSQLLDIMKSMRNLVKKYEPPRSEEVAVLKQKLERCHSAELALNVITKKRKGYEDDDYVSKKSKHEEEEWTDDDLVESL
CDK7/cyclinH/MAT1 trimeric complex, sequence (P51948 whole entry partner): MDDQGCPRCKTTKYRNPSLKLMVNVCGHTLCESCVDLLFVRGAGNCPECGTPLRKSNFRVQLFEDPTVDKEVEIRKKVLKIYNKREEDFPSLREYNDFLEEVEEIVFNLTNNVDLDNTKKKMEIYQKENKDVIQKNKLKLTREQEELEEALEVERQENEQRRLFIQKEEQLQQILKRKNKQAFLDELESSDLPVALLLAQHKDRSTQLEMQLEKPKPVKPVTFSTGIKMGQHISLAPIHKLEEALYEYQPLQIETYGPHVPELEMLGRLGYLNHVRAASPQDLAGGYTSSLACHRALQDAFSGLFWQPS

In the case of `C=CC(=O)N1CCC(N2CC(c3cc(F)c4c(c3)Nc3nccc(C5CCOCC5)c3[C@@H](C)O4)C2)CC1` (single isomer, unassigned) [Compound 153], the figures for the IC50 in experiment [1] and in experiment [3] were 5750 nM and 18.6 nM, respectively. In experiment [2] (20 nM enzyme), the Ki was determined as 0.0288 µM. The kinact in experiment [2] was found to be 3.67e-05 s⁻¹. Further, in experiment [2] (setting [4]), the kinact/KI came out at 1280 M⁻¹ s⁻¹.
Taken in the same sequence, the figures for `C=CC(=O)N1CCC(N2CC(c3cc(F)c4c(c3)Nc3nccc(C5CCOCC5)c3[C@H](C)O4)C2)CC1` (single isomer, unassigned) [Compound 155] were more than 10000 nM, 501 nM, 2.09 µM, 4.59e-05 s⁻¹ and 22 M⁻¹ s⁻¹.
For `C=CC(=O)N1CC[C@H](N2CCC(c3cc4c(c(C)n3)OCc3c(N5CCOCC5)ccnc3N4)CC2)C1` (single isomer, unassigned) [Compound 183] the same measures were more than 10000 nM, 56.2 nM, 0.0731 µM, 5.78e-05 s⁻¹ and 791 M⁻¹ s⁻¹.
With `C=CC(=O)N1CC[C@@H](N2CCC(c3cc4c(c(C)n3)OCc3c(N5CCOCC5)ccnc3N4)CC2)C1` (single isomer, unassigned) [Compound 184], the IC50 was more than 10000 nM in experiment [1] and 32.4 nM in experiment [3]. The Ki in experiment [2] (20 nM enzyme) amounted to 0.0446 µM. For the same molecule, the kinact in experiment [2] was determined as 6.03e-05 s⁻¹. The kinact/KI in experiment [2] (setting [4]) turned out to be 1350 M⁻¹ s⁻¹.
Taken in the same sequence, the figures for `C#CCCN(C)C/C=C/C(=O)N1CC(N2CCC(c3ccc4c(c3)Nc3nccc(N5CCOCC5)c3[C@@H](C)O4)CC2)C1` (single isomer, unassigned) [Compound 191] were more than 10000 nM, 4370 nM, 3.09 µM, 4.72e-05 s⁻¹ and 15.3 M⁻¹ s⁻¹.
For `C=CC(=O)N1CC[C@H](N2CC(c3cc(C)c4c(c3)Nc3nccc(-c5cnn(C)c5)c3CO4)C2)C1` (single isomer, unassigned) [Compound 192] the same measures were more than 10000 nM, 79.4 nM, 0.0907 µM, 4.14e-05 s⁻¹ and 456 M⁻¹ s⁻¹.
For `C=CC(=O)N1CC[C@H](N2CC(c3cc(C)c4c(c3)Nc3nccc(C5CCOCC5)c3CO4)C2)C1` (single isomer, unassigned) [Compound 193], the values for the IC50 in experiment [1] and in experiment [3] were more than 10000 nM and 69.2 nM, respectively. In experiment [2] (20 nM enzyme), this molecule showed a Ki of 0.063 µM. Moreover, the kinact in experiment [2] was 3.66e-05 s⁻¹. In experiment [2] (setting [4]), the kinact/KI came to 581 M⁻¹ s⁻¹.
Taken in the same sequence, the figures for `C=CC(=O)N1CC[C@@H](N2CC(c3cc(C)c4c(c3)Nc3nccc(-c5cnn(C)c5)c3CO4)C2)C1` (single isomer, unassigned) [Compound 194] were more than 10000 nM, 58.9 nM, 0.0892 µM, 4.72e-05 s⁻¹ and 530 M⁻¹ s⁻¹.
Consider `C=CC(=O)N1CC[C@@H](N2CC(c3cc(C)c4c(c3)Nc3nccc(C5CCOCC5)c3CO4)C2)C1` (single isomer, unassigned) [Compound 196], for which the values for the IC50 in experiment [1] and in experiment [3] were more than 3980 nM and 105 nM, respectively. The molecule also showed a Ki in experiment [2] (20 nM enzyme) of 0.0924 µM. Besides, the kinact in experiment [2] stood at 4.58e-05 s⁻¹. The kinact/KI in experiment [2] (setting [4]) came out at 496 M⁻¹ s⁻¹.
For `C=CC(=O)N1CC[C@H](N2CC(c3cc4c(c(C)n3)OCc3c(-c5cnn(C)c5)ccnc3N4)C2)C1` (single isomer, unassigned) [Compound 199] the same measures were more than 10000 nM, 288 nM, 0.449 µM, 3.63e-05 s⁻¹ and 80.8 M⁻¹ s⁻¹.
For `C=CC(=O)N1CC[C@@H](N2CC(c3cc4c(c(C)n3)OCc3c(-c5cnn(C)c5)ccnc3N4)C2)C1` (single isomer, unassigned) [Compound 204] the same measures were more than 10000 nM, 339 nM, 0.352 µM, 3.71e-05 s⁻¹ and 105 M⁻¹ s⁻¹.
As for `C#Cc1cc2c(cc1C1CCN(C3CN(C(=O)C=C)C3)CC1)Nc1nccc(N3CCOCC3)c1[C@@H](C)O2` (single isomer, unassigned) [Compound 211], the “CDK7_A549 mutant hCDK7(pIC50)” value in experiment [1] (A549 cells overexpressing CDK7-mutant (C312S)) was less than 5. For the same molecule, the Ki in experiment [2] (20 nM enzyme) came out at 7.29 µM. For the same molecule, the kinact in experiment [2] is 7.18e-05 s⁻¹. The kinact/KI in experiment [2] (setting [4]) came to 9.85 M⁻¹ s⁻¹. In addition, the “CDK7_A549 Wild-type CDK7 (pIC50)” value in experiment [3] (A549 cells) is recorded as approximately 5.
Turning to `C=CC(=O)N1CC(N2CCO[C@H](c3cc(C)c4c(c3)Nc3nccc(C5CCOCC5)c3CO4)CC2)C1` (single isomer, unassigned) [Compound 219], the IC50 in experiment [1] is more than 10000 nM; in experiment [3], 200 nM. In addition, in experiment [2] (20 nM enzyme), the Ki worked out at 0.311 µM. Further, the kinact in experiment [2] turned out to be 6.39e-05 s⁻¹. Also, the kinact/KI in experiment [2] (setting [4]) is 206 M⁻¹ s⁻¹.
For `C=CC(=O)N1CC(N2CCO[C@@H](c3cc(C)c4c(c3)Nc3nccc(C5CCOCC5)c3CO4)CC2)C1` (single isomer, unassigned) [Compound 221] the same measures were more than 10000 nM, 282 nM, 0.512 µM, 7.79e-05 s⁻¹ and 152 M⁻¹ s⁻¹.
`C=CC(=O)N1CC(N2CC[C@H](c3cc4c(c(C)n3)O[C@H](C)c3c(N5CCOCC5)ccnc3N4)C2)C1` (single isomer, unassigned) [Compound 224]: the results for the IC50 in experiment [1] and in experiment [3] were more than 10000 nM and 3980 nM, respectively. The kinact/KI in experiment [2] (setting [4]) is 3 M⁻¹ s⁻¹.
Regarding `C=CC(=O)N1CC[C@@H](N2CC(c3cc(C)c4c(c3)Nc3nccc(N5CCOCC5)c3[C@H](C)O4)C2)C1` (single isomer, unassigned) [Compound 227], the IC50 in experiment [1] was more than 10000 nM; in experiment [3], 724 nM. Besides, the Ki in experiment [2] (20 nM enzyme) came to 3.01 µM. In experiment [2], the kinact is 6.83e-05 s⁻¹. The kinact/KI in experiment [2] (setting [4]) was 22.7 M⁻¹ s⁻¹.
Regarding `C=CC(=O)N1CC[C@@H](N2CC(c3cc(C)c4c(c3)Nc3nccc(N5CCOCC5)c3[C@@H](C)O4)C2)C1` (single isomer, unassigned) [Compound 230], the IC50 in experiment [1] was 6760 nM; in experiment [3], 20 nM. The kinact/KI in experiment [2] (setting [5]) was 791 M⁻¹ s⁻¹.
Consider `C=CC(=O)N1CC[C@H](N2CC(c3cc(C)c4c(c3)Nc3nccc(N5CCOCC5)c3[C@H](C)O4)C2)C1` (single isomer, unassigned) [Compound 231], for which the IC50 in experiment [1] was more than 10000 nM; in experiment [3] it was 380 nM. In experiment [2] (20 nM enzyme), this molecule displayed a Ki of 1.61 µM. Moreover, the kinact in experiment [2] amounted to 6.1e-05 s⁻¹. The kinact/KI in experiment [2] (setting [4]) was 37.8 M⁻¹ s⁻¹.
Taken in the same sequence, the figures for `C=CC(=O)N1CC(N2CCC(c3ccc4c(c3)Nc3nccc(-c5cnn(C)c5)c3[C@H](C)O4)CC2)C1` (single isomer, unassigned) [Compound 232] were more than 10000 nM, 4170 nM, 10.1 µM, 0.000115 s⁻¹ and 11.3 M⁻¹ s⁻¹.
Take `C=CC(=O)N1CC(N2CCC(c3ccc4c(c3)Nc3nccc(-c5cnn(C)c5)c3[C@@H](C)O4)CC2)C1` (single isomer, unassigned) [Compound 233]: the IC50 is 8710 nM in experiment [1] and 28.2 nM in experiment [3]. Besides, the kinact/KI in experiment [2] (setting [5]) came to 1450 M⁻¹ s⁻¹.
`C=CC(=O)N1CC[C@H](N2CC(c3cc4c(c(C(F)(F)F)n3)OCc3c(N5CCOCC5)ccnc3N4)C2)C1` (single isomer, unassigned) [Compound 234]: the IC50 in experiment [1] was 8510 nM; in experiment [3], 95.5 nM. Besides, the “CDK7 (20 nM enz.) (kobs/[I], M^−1*s^−1)” value in experiment [2] (20 nM enzyme) is 610.385 M⁻¹ s⁻¹.
With `C=CC(=O)N1CC[C@H](N2CC(c3cc4c(c(C(F)(F)F)c3)OCc3c(N5CCOCC5)ccnc3N4)C2)C1` (single isomer, unassigned) [Compound 238], the IC50 was 3310 nM in experiment [1] and 40.7 nM in experiment [3]. Moreover, the kinact/KI in experiment [2] (setting [5]) worked out at 758 M⁻¹ s⁻¹.
Regarding `C=CC(=O)N1CC[C@H](N2CC(c3cc(C)c4c(c3)Nc3nccc(N5CCOCC5)c3[C@@H](C)O4)C2)C1` (single isomer, unassigned) [Compound 239], the values for the IC50 in experiment [1] and in experiment [3] were 7080 nM and 43.7 nM, respectively. Also, the kinact/KI in experiment [2] (setting [5]) turned out to be 1040 M⁻¹ s⁻¹.
For the molecule `C=CC(=O)N1CC[C@@H](N2CC(c3cc4c(c(C(F)(F)F)c3)OCc3c(N5CCOCC5)ccnc3N4)C2)C1` (single isomer, unassigned) [Compound 240], the IC50 is 5130 nM in experiment [1] and 55 nM in experiment [3]. Further, in experiment [2] (20 nM enzyme), the Ki was 0.0242 µM. Besides, in experiment [2], the kinact stood at 3.61e-05 s⁻¹. Moreover, in experiment [2] (setting [4]), the kinact/KI amounted to 1490 M⁻¹ s⁻¹.
As for `C=CC(=O)N1CC[C@@H](N2CC(c3cc4c(c(C(F)(F)F)n3)OCc3c(N5CCOCC5)ccnc3N4)C2)C1` (single isomer, unassigned) [Compound 241], in experiment [1], the IC50 was 10700 nM. Also, in experiment [2] (20 nM enzyme), the “CDK7 (20 nM enz.) (kinact, s^−1)” value was 3.715e-05 s⁻¹ and the Ki was found to be 0.0269 µM. Further, in experiment [2] (setting [4]), the kinact/KI turned out to be 1380 M⁻¹ s⁻¹. Further, in experiment [3], the IC50 is 95.5 nM.

(Values after US20240254138A1, “TRICYCLIC PYRIMIDINES AS CYCLIN-DEPENDENT KINASE 7 (CDK7) INHIBITORS” (JANSSEN PHARMACEUTICA NV, priority 2021, published 2024).)
